Measurements from US20210330611A1, “THERAPY FOR NEUROLOGICAL DISEASES/DISORDERS” (priority 2020, published 2021).
pIC50: −log10 of the molar value. Where “and” joins values, the source holds several entries; their conditions need not be identical. Equal entries are not always repeated. Where two headings read alike, the source gives them in different places.

Tests used:
[1] = tested on: fibrin-induced microglia activation; test: Image-based assay of fibrin-induced microglia activation (HTS and dose response); type: cell-based, rat; conditions: for inhibition at 10 µM: read-out: Fibrin % inhibition
[2] = tested on: LPS-induced microglia activation; test: Image-based assay of LPS-induced microglia activation (HTS and dose response); type: cell-based, rat; conditions: for inhibition at 10 µM: read-out: LPS % inhibition
[3] = tested on: fibrin- and LPS-induced microglia activation; test: cells; type: cell-based, rat
primary rat microglia [4] = test: Cell toxicity (dead cells, size <150 μm2) in LPS assay
primary rat microglia [5] = test: Cell toxicity (dead cells, size <150 μm2) in coated fibrin (cFib) assay;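 on Fibrin % cell toxicity: share of dead cells sized under 150 µm2 at 10 µM in fibrin-stimulated microglia HTS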
[6] = Rattus norvegicus, Microglia, primary microglia HTS, fibrin stimulation, increased cell size (>800 μm^2) as marker of activation
[7] = Rattus norvegicus, Microglia, 48 h, primary microglia HTS, LPS stimulation, increased cell size (>800 μm^2) as marker of activation
[8] = quadrant by fibrin and LPS inhibition in HTS of 1907 compounds
[9] = primary microglia HTS, LPS stimulation, decreased size (<150 μm^2) as marker of toxicity
[10] = primary microglia HTS, fibrin stimulation, decreased size (<150 μm^2) as marker of toxicity
[11] = Rattus norvegicus, Microglia, primary HTS, 10 μM, fibrin-stimulated primary microglia
[12] = Rattus norvegicus, Microglia, primary HTS, 10 μM, LPS-stimulated primary microglia
[13] = primary HTS, 10 μM, LPS assay, dead cells size <150 μm2
[14] = primary HTS, 10 μM, fibrin assay, dead cells size <150 μm2
[15] = Rattus norvegicus, Microglia, primary microglia HTS, 10 μM, fibrin-stimulated, cell size >800 μm^2 as marker of activation
[16] = Rattus norvegicus, Microglia, primary microglia HTS, 10 μM, LPS-stimulated, cell size >800 μm^2 as marker of activation
[17] = HTS of 1907 compounds, quadrant by fibrin and LPS inhibition
[18] = primary microglia HTS, 10 μM, LPS assay, cell size <150 μm^2 as marker of toxicity
[19] = primary microglia HTS, 10 μM, fibrin assay, cell size <150 μm^2 as marker of toxicity

Structure (SMILES) | inhibition at 10 µM [1, 6] | inhibition at 10 µM [2, 7] | Quadrant (FIG. 5b) [3, 8] | LPS % cell toxicity (primary rat microglia [4]; [9]) | Fibrin % cell toxicity (primary rat microglia [5]; [10]) | inhibition at 10 µM [1, 11] | inhibition at 10 µM [2, 12] | Quadrant (FIG. 5b) ([3]; primary HTS, 10 μM) | LPS % cell toxicity (primary rat microglia [4]; [13]) | Fibrin % cell toxicity (primary rat microglia [5]; [14]) | other results
CC1(C)O[C@@H]2C[C@H]3[C@@H]4C[C@H](F)C5=CC(=O)CC[C@]5(C)[C@H]4[C@@H](O)C[C@]3(C)[C@]2(C(=O)CO)O1 [Flurandrenolide, reference compound] | 110% | 98% | Q2 | 5% | 6% and 5% |  |  |  |  |  | pIC50 ([1]; Rattus norvegicus, Microglia, Table 7, read-out: fib_IC50): 8.70; pIC50 ([2]; Rattus norvegicus, Microglia, Table 7, read-out: LPS_IC50): 8.70; Quadrant (FIG. 5b) ([3]; Table 2, screen at 10 μM): Q2
CC1(C)[C@@H](OC(=O)CCC(=O)O)CC[C@]2(C)[C@H]3C(=O)C=C4[C@@H]5C[C@@](C)(C(=O)O)CC[C@]5(C)CC[C@@]4(C)[C@]3(C)CC[C@@H]12 [Carbenoxolone Sodium] |  |  |  |  |  | 16% | 6% | Q4 | 0% | 0% | 
Cc1ccc2c(Cl)cc(Cl)c(O)c2n1 [Chlorquinaldol] |  |  |  |  |  | -14% | 15% | Q4 | 0% | 1% | 
CC(=O)Oc1cc(C(C)C)c(OCCN(C)C)cc1C [Moxisylyte] | -22% | 3% | Q4 | 0% | 0% |  |  |  |  |  | 
CN1[C@@H](CC(=O)c2ccccc2)CCC[C@H]1C[C@H](O)c1ccccc1 [Lobeline] |  |  | Q4 |  |  |  |  |  |  |  | inhibition at 10 µM ([1]; Rattus norvegicus, Microglia, primary microglia HTS, fibrin stimulation, activation = cell size >800 μm2): -38%; inhibition at 10 µM ([2]; Rattus norvegicus, Microglia, 48 h, primary microglia HTS, LPS stimulation, activation = cell size >800 μm2): -5%; LPS % cell toxicity (primary rat microglia [4]; primary microglia HTS, LPS stimulation, toxicity = cell size <150 μm2): 0%; Fibrin % cell toxicity (primary rat microglia [5]; primary microglia HTS, fibrin stimulation, toxicity = cell size <150 μm2): 1%
C=C1/C(=C\C=C2/CCC[C@]3(C)[C@@H]([C@H](C)CCCC(C)(C)O)CC[C@@H]23)C[C@@H](O)C[C@@H]1O [Calcitriol] |  |  |  |  |  | -46% | 0% | Q4 | 1% | 0% | 
CCC(Cc1c(I)cc(I)c(N)c1I)C(=O)O (stereo not shown) [Iopanic acid, reference compound] |  |  | Q3 | 0% | 1% |  |  |  |  |  | Fibrin Selectivity [1]: 4; Fibrin Selectivity (LOG10) [1]: 0.58; pIC50 ([1]; Table 1, dose response 0.001-20 μM, triplicates, primary rat microglia, 48 h, read-out: Fibrin IC50): 5.30; IC50 ([1]; Table 3, read-out: Fibrin IC50 (uM) (Suppl. Table 7)): 5 µM; pIC50 ([1]; dose response, fibrin-induced microglia activation, read-out: Fibrin IC50): 5.30; Fibrin % inhibition ([1]; primary microglia HTS, fibrin stimulation, increased cell size (>800 μm^2) as marker of activation): 51%; pIC50 ([2]; Table 1, dose response 0.001-20 μM, triplicates, primary rat microglia, 48 h, read-out: LPS IC50): < 4.70; IC50 ([2]; Table 3, read-out: LPS IC50 (uM) (Suppl. Table 7)): > 20 µM; pIC50 ([2]; dose response, LPS-induced microglia activation, read-out: LPS IC50): < 4.70; LPS % inhibition ([2]; primary microglia HTS, LPS stimulation, increased cell size (>800 μm^2) as marker of activation): 35%; Hit ([3]; HTS hit classification): HIT (Hits were defined as molecules that exhibited greater than 50% inhibition of either fibrin or LPS activation); Quadrant (FIG. 5b) ([3]; Table 1, screen at 10 μM): Q3; Cherry-picked Hit (Suppl. Table 7) ([3]; Table 3): HIT (Hits were defined as molecules that exhibited greater than 50% inhibition of either fibrin or LPS activation); Quadrant (FIG. 5b) ([3]; Table 3, screen at 10 μM): Q3; IC50 (primary rat microglia [4]; read-out: Cell Toxicity IC50 (uM) [LPS assay], Table 3): > 20 µM; IC50 (primary rat microglia [5]; read-out: Cell Toxicity IC50 (uM) [cFib assay], Table 3): > 20 µM
C#C[C@]1(OC(C)=O)CC[C@H]2[C@@H]3CCC4=CC(=O)CC[C@@H]4[C@H]3CC[C@@]21C [Norethindrone Acetate] | -5% | 18% | Q4 | 0% | 1% |  |  |  |  |  | 
NCCC(O)(P(=O)(O)O)P(=O)(O)O [Pamidronate] | 0% | -5% | Q4 | 0% | 1% |  |  |  |  |  | 
C=CCN1C[C@H](C(=O)N(CCCN(C)C)C(=O)NCC)C[C@@H]2c3cccc4[nH]cc(c34)C[C@H]21 [Cabergoline] |  |  |  |  |  | 20% | 33% | Q4 | 1% | 1% | 
CCS(=O)(=O)CCn1c([N+](=O)[O-])cnc1C [Tinidazole] |  |  |  |  |  |  |  |  |  |  | inhibition at 10 µM [1, 15]: 2%; inhibition at 10 µM [2, 16]: 14%; Quadrant (FIG. 5b) [3, 17]: Q4; LPS % cell toxicity (primary rat microglia [4]; [18]): 1%; Fibrin % cell toxicity (primary rat microglia [5]; [19]): 0%
CNS(=O)(=O)Cc1ccc2[nH]cc(CCN(C)C)c2c1 [Sumatriptan] |  |  |  |  |  |  |  |  |  |  | inhibition at 10 µM [1, 15]: -7%; inhibition at 10 µM [2, 16]: 8%; Quadrant (FIG. 5b) [3, 17]: Q4; LPS % cell toxicity (primary rat microglia [4]; [18]): 0%; Fibrin % cell toxicity (primary rat microglia [5]; [19]): 1%
CC(C)(C)NCC(O)c1ccccc1Cl.Cl (stereo not shown) [Tulobuterol, Tulobuterol Hydrochloride] |  |  |  |  |  |  |  |  |  |  | Fibrin % inhibition ([1]; primary microglia HTS, 10 μM, fibrin-stimulated, cell size >800 μm^2 as marker of activation): 21%; LPS % inhibition ([2]; primary microglia HTS, 10 μM, LPS-stimulated, cell size >800 μm^2 as marker of activation): 36%; Quadrant (FIG. 5b) [3, 17]: Q4; LPS % cell toxicity (primary rat microglia [4]; [18]): 0%; Fibrin % cell toxicity (primary rat microglia [5]; [19]): 0%
